Laboratory results reported in ChEMBL document CHEMBL1201862, “PubChem BioAssay data set” (2004).
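Step 1: Grow cells in 96-well plates. Step 2: Expose to compound for 48 hours at 5 concentrations. Step 3: Interpolate endpoints linearly; if unreached, use highest concentration. GI50 is the concentration that inhibits growth by half.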 Activity calls are given as the source filed them. Cut-off read from the data, not from the text of the source: active = GI50 up to about 1.1 µM and inactive = higher.

Key:
Assay in all cases: inhibition of tumour cell growth, NCI panel, 48 h
HCT-116 = test system: HCT-116
HOP-62 = test system: HOP-62
SR = test system: SR
IGROV-1 = test system: IGROV-1
786-0 = test system: 786-0
MDA-MB-435 = test system: MDA-MB-435
SK-MEL-2 = test system: SK-MEL-2
MDA-N = test system: MDA-N
T47D = test system: T47D
UACC-62 = test system: UACC-62
RXF 393 = test system: RXF 393
SN12C = test system: SN12C
UACC-257 = test system: UACC-257
CAKI-1 = test system: CAKI-1
MDA-MB-231 = test system: MDA-MB-231
NCI-H226 = test system: NCI-H226
Malme-3M = test system: Malme-3M
DU-145 = test system: DU-145
MOLT-4 = test system: MOLT-4
OVCAR-3 = test system: OVCAR-3
NCI-H522 = test system: NCI-H522
TK-10 = test system: TK-10
SF-295 = test system: SF-295
SF-268 = test system: SF-268
CCRF-CEM = test system: CCRF-CEM
A498 = test system: A498
SF-539 = test system: SF-539
EKVX = test system: EKVX
HT-29 = test system: HT-29
OVCAR-5 = test system: OVCAR-5
SNB-75 = test system: SNB-75
M14 = test system: M14
MCF7 = test system: MCF7
NCI/ADR-RES = test system: NCI/ADR-RES
HCT-15 = test system: HCT-15
OVCAR-4 = test system: OVCAR-4
SK-OV-3 = test system: SK-OV-3
SK-MEL-5 = test system: SK-MEL-5
A549 = test system: A549
PC-3 = test system: PC-3
HCC 2998 = test system: HCC 2998
U-251 = test system: U-251
COLO 205 = test system: COLO 205
NCI-H23 = test system: NCI-H23
Hs-578T = test system: Hs-578T
K562 = test system: K562
OVCAR-8 = test system: OVCAR-8
NCI-H460 = test system: NCI-H460
HL-60 = test system: HL-60
SW-620 = test system: SW-620
SNB-19 = test system: SNB-19
KM12 = test system: KM12
RPMI-8226 = test system: RPMI-8226
HOP-92 = test system: HOP-92
UO-31 = test system: UO-31
ACHN = test system: ACHN
SK-MEL-28 = test system: SK-MEL-28

SMILES: Clc1c(Cl)c(Cl)c2c(nnn2C2CCCO2)c1Cl (configuration not stated)
- GI50 (HCT-116): 39.1 µM (inactive)
- GI50 (HOP-62): 40.5 µM (inactive)
- GI50 (SR): 32.9 µM (inactive)
- GI50 (IGROV-1): 34.4 µM (inactive)
- GI50 (786-0): 45.8 µM (inactive)
- GI50 (MDA-MB-435): 34.1 µM (inactive)
- GI50 (SK-MEL-2): 26.5 µM (inactive)
- GI50 (MDA-N): 27.7 µM (inactive)
- GI50 (T47D): 50.9 µM (inactive)
- GI50 (UACC-62): 44.4 µM (inactive)
- GI50 (RXF 393): 44.4 µM (inactive)
- GI50 (SN12C): 40.7 µM (inactive)
- GI50 (UACC-257): 35.6 µM (inactive)
- GI50 (CAKI-1): 31.9 µM (inactive)
- GI50 (MDA-MB-231): 43.5 µM (inactive)
- GI50 (NCI-H226): 34.4 µM (inactive)
- GI50 (Malme-3M): 31.3 µM (inactive)
- GI50 (DU-145): 51.5 µM (inactive)
- GI50 (MOLT-4): 23.2 µM (inactive)
- GI50 (OVCAR-3): 34.6 µM (inactive)
- GI50 (NCI-H522): 23.8 µM (inactive)
- GI50 (TK-10): 65.3 µM (inactive)
- GI50 (SF-295): 36.9 µM (inactive)
- GI50 (SF-268): 29.8 µM (inactive)
- GI50 (CCRF-CEM): 26.4 µM (inactive)
- GI50 (A498): 27.5 µM (inactive)
- GI50 (SF-539): 30.7 µM (inactive)
- GI50 (EKVX): 22.3 µM (inactive)
- GI50 (HT-29): 33.6 µM (inactive)
- GI50 (OVCAR-5): 41.7 µM (inactive)
- GI50 (SNB-75): 12.9 µM (inactive)
- GI50 (M14): 39.6 µM (inactive)
- GI50 (MCF7): 33.9 µM (inactive)
- GI50 (NCI/ADR-RES): 31.7 µM (inactive)
- GI50 (HCT-15): 28.4 µM
- GI50 (OVCAR-4): 18.9 µM (inactive)
- GI50 (SK-OV-3): 75.9 µM (inactive)
- GI50 (SK-MEL-5): 40.1 µM (inactive)
- GI50 (A549): 24.7 µM (inactive)
- GI50 (PC-3): 39.2 µM (inactive)
- GI50 (HCC 2998): 29.8 µM (inactive)
- GI50 (U-251): 33.8 µM (inactive)
- GI50 (COLO 205): 24.2 µM (inactive)
- GI50 (NCI-H23): 19.6 µM (inactive)
- GI50 (Hs-578T): 25.8 µM (inactive)
- GI50 (K562): 24.3 µM (inactive)
- GI50 (OVCAR-8): 29.3 µM (inactive)
- GI50 (NCI-H460): 13.9 µM (inactive)
- GI50 (HL-60): 5.79 µM (inactive)

SMILES: CNC1=Nc2ccccc2C(=S)N2CSC[C@@H]12
- GI50 (HCT-116): > 100 µM (inactive)
- GI50 (HOP-62): > 100 µM (inactive)
- GI50 (SR): 7.55 µM (inactive)
- GI50 (786-0): > 100 µM (inactive)
- GI50 (MDA-MB-435): > 100 µM (inactive)
- GI50 (SK-MEL-2): > 100 µM (inactive)
- GI50 (T47D): > 100 µM (inactive)
- GI50 (UACC-62): > 100 µM (inactive)
- GI50 (RXF 393): > 100 µM (inactive)
- GI50 (SN12C): > 100 µM (inactive)
- GI50 (CAKI-1): > 100 µM (inactive)
- GI50 (MDA-MB-231): > 100 µM (inactive)
- GI50 (Malme-3M): > 100 µM (inactive)
- GI50 (DU-145): > 100 µM (inactive)
- GI50 (MOLT-4): > 100 µM (inactive)
- GI50 (OVCAR-3): > 100 µM (inactive)
- GI50 (SW-620): > 100 µM (inactive)
- GI50 (NCI-H522): > 100 µM (inactive)
- GI50 (SNB-19): > 100 µM (inactive)
- GI50 (KM12): > 100 µM (inactive)
- GI50 (TK-10): > 100 µM (inactive)
- GI50 (SF-295): > 100 µM (inactive)
- GI50 (SF-268): > 100 µM (inactive)
- GI50 (A498): > 100 µM (inactive)
- GI50 (SF-539): > 100 µM (inactive)
- GI50 (HT-29): > 100 µM (inactive)
- GI50 (OVCAR-5): > 100 µM (inactive)
- GI50 (M14): > 100 µM (inactive)
- GI50 (MCF7): > 100 µM (inactive)
- GI50 (RPMI-8226): > 100 µM (inactive)
- GI50 (HOP-92): 50.9 µM (inactive)
- GI50 (NCI/ADR-RES): > 100 µM (inactive)
- GI50 (HCT-15): > 100 µM
- GI50 (UO-31): > 100 µM (inactive)
- GI50 (OVCAR-4): > 100 µM (inactive)
- GI50 (SK-OV-3): > 100 µM (inactive)
- GI50 (SK-MEL-5): > 100 µM (inactive)
- GI50 (A549): > 100 µM (inactive)
- GI50 (PC-3): > 100 µM (inactive)
- GI50 (HCC 2998): > 100 µM (inactive)
- GI50 (U-251): > 100 µM (inactive)
- GI50 (ACHN): > 100 µM (inactive)
- GI50 (COLO 205): > 100 µM (inactive)
- GI50 (NCI-H23): > 100 µM (inactive)
- GI50 (K562): > 100 µM (inactive)
- GI50 (OVCAR-8): > 100 µM (inactive)
- GI50 (SK-MEL-28): > 100 µM (inactive)
- GI50 (NCI-H460): > 100 µM (inactive)
